Like-named read-outs stand apart in the source and are kept apart here.
Assays:
4T-1 orthotopic tumors = assay: Orthotopic breast tumor therapy model; type: in vivo, female BALB/c mice; details: 1mg/kg i.p. every third day
Experimental: In another experiment, female BALB/c mice (4-6 weeks old) were obtained from Jackson Laboratories (Ban harbor, Maine, USA) and maintained under controlled humidity and temperature conditions. The use of BALB/c mice and their treatment was approved by the Institutional Animal Care and Use Committee (IACUC), Texas Tech University Health Sciences Center, and the experiments were conducted in strict compliance with the regulations. Exponentially growing 4T-1 cells were harvested, washed and re-suspended in PBS at a density of 1x10^6 cells per ml with 50% matrigel. A suspension of 0.1mL containing 0.1x10^6 cells was injected in the mammary fat pads of the recipient mice. Tumor volumes and animal weights were measured every alternate day as described by us previously. When the tumors reached a size of about 30-50 mm3, mice were randomly segregated into two groups with eight mice in each group. […] The control mice received vehicle alone. Mice were sacrificed on day 28 by CO2 overdose and death was confirmed by cervical dislocation in accordance with IACUC guidelines. The tumors were removed aseptically from each mouse, weighed and snap frozen in liquid-nitrogen for further analysis.

MDA-MB-231 cells = assay: Annexin V-FITC apoptosis assay; type: cell-based, human; details: MDA-MB-231, 75nM CuB for 72h
Experimental: (§1) Apoptosis assay was performed using a kit (BD Biosciences, CA) according to manufacturer's instructions. Approximately, 0.1x10^6 cells were plated in 6-well plate and left overnight for attachment. […] A 5.0μl of Annexin V-FITC and 5μl of propidium iodide (BD Biosciences, San Jose, CA) were added to the 100μl of suspension and incubated for additional 20 min at room temperature in dark. Total sample volume was made up to 200μl with binding buffer. Samples were analyzed by flow cytometer after vortexing (Accuri C6, MI).

MCF-7 cells = assay: Annexin V-FITC apoptosis assay; type: cell-based, human; details: MCF-7, 75nM CuB for 72h
Experimental: as §1

SKBR3 cells = assay: Annexin V-FITC apoptosis assay; type: cell-based, human; details: SKBR3, 75nM CuB for 72h
Experimental: as §1

4T-1 cells = assay: Annexin V-FITC apoptosis assay; type: cell-based, murine; details: 4T-1, 75nM CuB for 72h
Experimental: as §1

[1] = test system: MDA-MB-231, SKBR3, MCF-7 and 4T-1 breast cancer cells; assay: Sulforhodamine B cell survival assay, range over the breast cancer cell panel; type: cell-based
Experimental: The cells were fixed with ice cold 10% trichloroacetic acid, washed and stained with sulforhodamine B (SRB) dye and the optical density was measured in Tris base solution using plate reader, after washing the dye with 1% acetic acid solution as described by us previously.

melanoma tumors = details: 1mg/kg intraperitoneal thrice a week, after 23 days; cited from earlier work
[2] = test system: MDA-MB-231 orthotopic tumors; assay: Orthotopic breast tumor therapy model; type: in vivo, female athymic nude mice; details: 2mg/kg oral gavage every day
Experimental: Female athymic nude mice (4-6 weeks old) were obtained from Jackson Laboratories (Ban harbor, Maine, USA) and maintained under specific pathogen-free conditions. The use of athymic nude mice and their treatment was approved by the Institutional Animal Care and Use Committee (IACUC), Texas Tech University Health Sciences Center, and the experiments were conducted in strict compliance with the regulations. Mice were given antioxidant-free AIN-76A special diet (TestDiet, Richmond, IN) one week before starting the experiment. Exponentially growing MDA-MB-231 cells were harvested, washed and resuspended in PBS at a density of 50x10^6 cells per ml with 80% matrigel (BD Biosciences, San Jose, CA). A suspension of 0.1mL containing 5x10^6 cells was injected in the mammary fat pads of the recipient mice. Tumor volumes and animal weights were measured twice a week as described by us previously. When the tumors reached a size of about 50-80 mm^3, mice were randomly segregated into two groups with ten mice in each group. […] Mice were sacrificed on day 60 by CO2 overdose and death was confirmed by cervical dislocation in accordance with IACUC guidelines. The tumors were dissected out aseptically from each mouse, weighed and snap frozen in liquid-nitrogen for western blot analysis.

[3] = test system: non-small lung carcinoma tumor xenografts; details: 1mg/kg every alternate day for 5 weeks; cited from earlier work
[4] = test system: normal human melanocyte epithelial (PIG1) cells; assay: Sulforhodamine B cell survival assay in normal cells; type: cell-based; details: 50nM CuB for 72h
Experimental: The cells were fixed with ice cold 10% trichloroacetic acid, washed and stained with sulforhodamine B (SRB) dye and the optical density was measured in Tris base solution using plate reader, after washing the dye with 1% acetic acid solution as described by us previously. […]
vivo breast tumor growth suppression – Gupta et al
24, 48h and 72h. Cell survival was measured with sulforhodamine B assay to estimate the IC50 values. The ex periments were repeated at least three times with 4 replicates in each ex periment. B. Comparison of the cell survival of PIG1 and the breast cancer cell lines at 50nM […]
(1 picture or pasted object on this page, not shown here)

[5] = test system: MDA-MB-231 orthotopic tumor; details: after 36 days, cited from earlier work
[6] = test system: ITGA6 in MDA-MB-231 cells; assay: Western blot of ITGA6 expression after TGFβ treatment; type: cell-based, human
Experimental: (§2) Whole cell lysates were prepared using 4% (w/v) CHAPS buffer while tumor lysates were prepared by homogenizing the tumors in RIPA lysis buffer. Proteins from control and treated samples were subjected to SDS-PAGE and the segregated proteins were transferred to PVDF membrane. The membrane was developed as described by us previously. All antibodies used in the study were purchased from Cell signaling except HER2 (Abcam, Cambridge, MA), ITGB4 (Santacruz Biotechnology, Dallas, TX), TWIST (Santacruz Biotechnology, Dallas, TX), phospho Akt (S473) (Santacruz Biotechnology, Dallas, TX) and Caspase 3 (Santacruz Biotechnology, Dallas, TX).

ITGA6 in 4T-1 cells = assay: as above; type: cell-based, murine
Experimental: as §2

| Substance | tumor weight reduction (4T-1 orthotopic tumors; day 28) [%] | tumor volume in treated group (4T-1 orthotopic tumors; day 28, n=8) [mm^3] | apoptosis induced (cells) (MDA-MB-231 cells) | apoptosis induced (cells) (MCF-7 cells) | apoptosis induced (cells) (SKBR3 cells) | apoptosis induced (cells) (4T-1 cells) | growth inhibition of cancer cell lines SKBR3, MDA-MB-231, MCF-7 and 4-T1 ([1]; 50nM CuB for 72h) | IC50 ([1]; after 48 and 72 h of treatment) [nM] | suppression of tumor growth (melanoma tumors) | tumor volume reduction as compared to control ([2]; day 60) [%] | tumor volume in treated group ([2]; day 60, n=10) [mm^3] | tumor weight less than control ([2]; tumors dissected at day 60) | tumor volume reduction [3] [%] | growth inhibition of PIG1 cells [4] | tumor volume suppression ([5]; 0.5 mg/kg i.p.) [%] | tumor volume suppression ([5]; 1mg/kg i.p.) [%] | increase of ITGA6 expression [6] | increase of ITGA6 expression (ITGA6 in 4T-1 cells) |
| --- | --- | --- | --- | --- | --- | --- | --- | --- | --- | --- | --- | --- | --- | --- | --- | --- | --- | --- |
| Cucurbitacin B [CuB] | 27 | 1446.7±142.6 | about 60% | about 60% | about 80% | about 60% | 50-70% | 18 to 50 | about 50% | 55 | 111.3±18.4 | about 53% | 70 | 20-30% | 42 | 55 | – | – |
| TGFβ | – | – | – | – | – | – | – | – | – | – | – | – | – | – | – | – | about 1.5 fold | about 1.5 fold |
